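Protocol summary: plate cells (96-well), add compound at 5 concentrations, incubate 48 h, interpolate endpoints linearly. The concentration for full growth arrest is given as TGI.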
Legend:
Experiment in all cases: NCI-60 cell line screen, 48 h
M14 melanoma = test system: M14 melanoma
SW-620 colon = test system: SW-620 colon
DLD-1 colon = test system: DLD-1 colon
SNB-78 CNS = test system: SNB-78 CNS
HCT-116 colon = test system: HCT-116 colon
DMS 114 small cell lung = test system: DMS 114 small cell lung
SK-MEL-2 melanoma = test system: SK-MEL-2 melanoma
HT29 colon = test system: HT29 colon
HOP-62 NSCLC = test system: HOP-62 NSCLC

| Compound | TGI (M14 melanoma) [µM] | TGI (SW-620 colon) [µM] | TGI (DLD-1 colon) [µM] | TGI (SNB-78 CNS) [µM] | TGI (HCT-116 colon) [µM] | TGI (DMS 114 small cell lung) [µM] | TGI (SK-MEL-2 melanoma) [µM] | TGI (HT29 colon) [µM] | TGI (HOP-62 NSCLC) [µM] |
| --- | --- | --- | --- | --- | --- | --- | --- | --- | --- |
| CC1/C(=N\O)CC(c2ccccc2)N(C)C1c1ccccc1 (centres undefined) | > 100 | > 100 | > 100 | > 100 | > 100 | > 100 | > 100 | > 100 | > 100 |
| COC(=O)C1Cc2c(n(C)c3ccccc23)C(CCC(=O)O)N1Cc1ccccc1 (centres undefined) | 62.2 | > 100 | > 100 | > 100 | 43.2 | 93.2 | > 100 | > 100 | > 100 |
| C[N+](C)(C)CC(=O)N/N=C(/C(=O)Nc1ccc(Br)cc1)C1C(=O)NC(=O)NC1=O | > 100 | > 100 | > 100 | > 100 | > 100 | > 100 | > 100 | > 100 | > 100 |
| O=C(O)[C@H](NS(=O)(=O)c1ccc(F)cc1)c1ccccc1 | > 100 | > 100 | > 100 | > 100 | > 100 | > 100 | > 100 | > 100 | > 100 |
| CC1=C(/C=C/C(C)=C/C2CC(N(C)C)=CC(=O)O2)C(C)(C)CCC1 (centres undefined) | 28.3 | 31.1 | 32.8 | 41.9 | 43 | 23.8 | 27.4 | 27.9 | 31 |
| O=C(CSc1nc(-c2ccccc2)c(-c2ccccc2)[nH]1)N/N=C/c1ccc(O)cc1 | 40.6 | > 100 | > 100 | > 100 | 63.2 | 57.5 | 67.2 | 37.1 | 46.5 |
